From patent publication US6872745B2, “Antipicornaviral compounds and compositions, their pharmaceutical uses, and materials for their synthesis” (Agouron Pharmaceuticals, Inc., priority 2000, dated 2005)
pEC50: −log10 of the molar value.

How the values were obtained:
[1] = molecular target: T1, rhinovirus 3C protease, serotype 14 (Human rhinovirus 14, UniProt P03303); assay: Inhibition of rhinovirus 3C protease (FRET assay, enzyme start); assay type: biochemical; details: HRV-14 3C protease, progress curves, read-out: Kobs/I
T1 construct: Recombinant rhinovirus 3C proteases; made in house
T1 sequence (P03303 1538-1719): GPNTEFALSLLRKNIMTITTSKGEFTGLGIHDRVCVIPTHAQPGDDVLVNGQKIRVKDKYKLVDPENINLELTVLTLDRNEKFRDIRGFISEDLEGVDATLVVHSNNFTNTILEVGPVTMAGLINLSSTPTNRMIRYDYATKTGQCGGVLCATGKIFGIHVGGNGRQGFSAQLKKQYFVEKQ
Protocol: Stock solutions (50 mM, in DMSO) of various compounds were prepared; dilutions were in the same solvent. Recombinant rhinovirus 3C proteases (see Birch et al., “Purification of recombinant human rhinovirus 14 3C protease expressed in Escherichia coli,” Protein Expr. Pur. (1995), vol. 6(5), 609-618) from serotypes 14, 16, and 2 were prepared by the following standard chromatographic procedures: (1) ion exchange using Q Sepharose Fast Flow from Pharmacia; (2) affinity chromatography using Affi-Gel Blue from Biorad; and (3) sizing using Sephadex G-100 from Pharmacia. Each assay sample contained 2% DMSO, 50 mM tris pH 7.6, 1 mM EDTA, a test compound at the indicated concentration, approximately 1 μM substrate, and 50-100 nM protease. The kobs/I values were obtained from reactions initiated by addition of enzyme rather than substrate. RVP activity was measured in the fluorescence resonance energy transfer assay. The substrate was (N-terminal) DABCYL-(Gly-Arg-Ala-Val-Phe-Gln-Gly-Pro-Val-Gly)-EDANS. In the uncleaved peptide, the EDANS fluorescence was quenched by the proximal DABCYL moiety. When the peptide was cleaved, the quenching was relieved, and activity was measured as an increase in fluorescence signal. The tabulated data in the column designated kobs/[I] were measured from progress curves in enzyme start experiments.

HRV-14 = assay: Antirhinoviral H1-HeLa cell culture assay (XTT cell protection); assay type: cell-based, human rhinovirus; details: Rhinovirus B, HRV14, H1-HeLa, HRV-14, H1-HeLa cells
Protocol: (§1) In this cell protection assay, the ability of compounds to protect cells against HRV infection was measured by the XTT dye reduction method, which is described in Weislow et al., J. Natl. Cancer Inst. (1989), vol. 81, 577-586. H1-HeLa cells were infected with HRV-14 at a multiplicity of infection (m.o.i.) of 0.13 (virus particles/cell) or mock-infected with medium only. Infected or mock-infected cells were resuspended at 8×10^5 cells per ml, and incubated with appropriate concentrations of the compounds to be tested. Two days later, XTT/PMS was added to test plates and the amount of formazan produced was quantified spectrophotometrically at 450/650 nm. The EC50 value was calculated as the concentration of compound that increased the percentage of formazan production in compound-treated, virus-infected cells to 50% of that produced by compound-free, mock-infected cells. The 50% cytotoxic dose (CC50) was calculated as the concentration of compound that decreased the percentage of formazan produced in compound-treated, mock-infected cells to 50% of that produced by compound-free, mock-infected cells. The therapeutic index (TI) was calculated by dividing the CC50 value by the EC50 value.
(§2) All strains of human rhinovirus (HRV) for use in this assay were purchased from American Type Culture Collection (ATCC), except for HRV serotype-14 (produced from the infectious cDNA clone constructed by Dr. Robert Rueckert, Institute for Molecular Virology, University of Wisconsin, Madison, Wis.). HRV stocks were propagated and viral assays were performed in H1-HeLa cells (ATCC). Cells were grown in minimal essential medium with 10% fetal bovine serum, available from Life Technologies (Gaithersburg, Md.).

[2] = Cytotoxicity in mock-infected cells of the antirhinoviral assay (XTT); assay type: cell-based; details: human, H1-HeLa cells, table line HRV-14
Protocol: as §1, §2

Row | Compound | kinact/KI [1] [M⁻¹ s⁻¹] | pEC50 (HRV-14) | CC50 at 2 days [2] [nM]
1 | CCOC(=O)/C=C/[C@H](CCC(N)=O)NC(=O)[C@H](Cc1ccccc1)NC(=O)c1ccc(-c2cc(OC)ccc2OC)[nH]1 [Compound 7, 6-Carbamoyl-4S-(2S-{[5-(2,5-dimethoxy-phenyl)-1H-pyrrole-2-carbonyl]-amino}-3-phenyl-propionylamino)-hex-2-enoic acid ethyl ester] | 5200 | 6.52 | > 10000
2 | CCOC(=O)/C=C/[C@H](CCC(N)=O)NC(=O)[C@H](Cc1ccccc1)NC(=O)c1ccc(C(C)CC(F)(F)F)[nH]1 (stereo partly drawn) [Compound 13, 6-Carbamoyl-4S-(3-phenyl-2S-{[5-(3,3,3-trifluoro-1 methyl-propyl)-1H-pyrrole-2-carbonyl]-amino}-propionylamino)-hex-2(trans)-enoic acid ethyl ester] | 6570 | 5.70 | > 10000
3 | CCOC(=O)/C=C/[C@H](CCC(N)=O)NC(=O)[C@H](Cc1ccccc1)NC(=O)c1ccc(-c2cccc3c2OCO3)[nH]1 [Compound 12] | 2700 | 5.90 | > 10000
4 | CCOC(=O)/C=C/[C@H](CCC(N)=O)NC(=O)[C@H](Cc1ccccc1)NC(=O)c1ccc(-c2ccccc2C(F)(F)F)[nH]1 [Compound 2, 6-Carbamoyl-4S-{3-phenyl-2S-[(5-(2-trifluoromethyl-phenyl)-1H-pyrrole-2-carbonyl)-amino]-propionylamino}-hex-2(trans)-enoic acid ethyl ester] | 32400 | 7.19 | > 10000
5 | C#CC[C@H](NC(=O)c1ccc(-c2ccccc2C(F)(F)F)[nH]1)C(=O)N[C@H](/C=C/C(=O)OCC)CCC(N)=O [Compound 16, 6-Carbamoyl-4S-(2S-{[5-(2-trifluoromethyl-phenyl)-1H-pyrrole-2-carbonyl]-amino}-pent-4-ynoylamino)-hex-2(trans)-enoic acid ethyl ester] | 7100 | 5.88 | > 10000
6 | CCOC(=O)/C=C/[C@H](CCC(N)=O)NC(=O)[C@H](Cc1ccccc1)N(C)C(=O)c1ccc(-c2ccccc2C(F)(F)F)[nH]1 [Compound 41, 6-Carbamoyl-4S-(2S {methyl-[5-(2-trifluoromethyl-phenyl)-1H-pyrrole-2-carbonyl]-amino}-3-3-phenyl-propionylamino)-hex-2(trans)-enoic acid ethyl ester] | 10700 | 6.30 | > 10000
7 | CCOC(=O)/C=C/[C@H](CCC(N)=O)NC(=O)[C@H](Cc1ccccc1)NC(=O)c1ccc(-c2ccccc2)[nH]1 [Compound 10, 6-Carbamoyl-4S-{3-phenyl-2S-[(5-phenyl-1H-pyrrole-2-carbonyl)-amino]-propionylamino}-hex-2(trans)-enoic acid ethyl ester] | 2370 |  | 
8 | CCOC(=O)/C=C/[C@H](CCC(N)=O)NC(=O)[C@H](Cc1ccccc1)NC(=O)c1ccc(-c2ccccc2C)[nH]1 [Compound 9, 6-Carbamoyl-4S-{3-phenyl-2S-[(5-o-tolyl-1H-pyrrole-2-carbonyl)-amino]-propionylamino}-hex-2(trans)-enoic acid ethyl ester] | 12600 |  | 
9 | CCOC(=O)/C=C/[C@H](CCC(N)=O)NC(=O)[C@H](Cc1ccccc1)NC(=O)c1ccc(-c2cc(C)no2)[nH]1 [Compound 21, 6-Carbamoyl-4S-(2S-{[5-(3-methyl-isoxazol-5-yl)-1H-pyrrole-2-carbonyl]-amino}-3-phenyl-propionylamino)-hex-2(trans)-enoic acid ethyl ester] | 1380 |  | 
10 | CCOC(=O)/C=C/[C@H](CCC(N)=O)NC(=O)[C@H](Cc1ccccc1)NC(=O)c1ccc(-c2cc(Cl)ccc2OC)[nH]1 [Compound 4, 6-Carbamoyl-4S-(2S-{[5-(5-chloro-2-methoxy-phenyl)-1H-pyrrole-2-carbonyl]amino}-3-phenyl-propionylamino)-hex-2(trans)-enoic acid ethyl ester] | 5860 |  | 
11 | CCOC(=O)/C=C/[C@H](C[C@@H]1CCNC1=O)NC(=O)CCC(C)=O [Compound 43, 4S-(4-oxo-pentanoylamino)-5-(2-oxo-pyrrolidin-3S-yl)-pent-2-enoic acid ethyl ester] | 85 |  | 

Now from value to molecule, other results behind:

Row | kinact/KI [1] [M⁻¹ s⁻¹] | pEC50 (HRV-14) | Compound | CC50 at 2 days [2] [nM]
12 | 42 |  | CCOC(=O)/C=C/[C@H](C[C@@H]1CCNC1=O)NC(=O)[C@H](Cc1ccc(F)cc1)NC(=O)c1cc2ccccc2[nH]1 [Compound 42, Ethyl-3-{(Indole-2-carboxylic acid)-L-(4-F-Phe)-L-[(S)-Pyrrol-Ala]}-E-Propenoate] | 
13 | 3180 | 5.78 | CCOC(=O)/C=C/[C@H](CCC(N)=O)NC(=O)[C@@H](CC(=O)c1ccc(-c2ccccc2C(F)(F)F)[nH]1)Cc1ccccc1 [Compound 40, 4S-{2R-Benzyl-4-oxo-[5-(2-trifluoromethyl-phenyl)-1H-pyrrol-2-yl]-butyrylamino}-6-carbamoyl-hex-2(trans)-enoic acid ethyl ester] | > 10000
14 | 26400 | 6.58 | CCOC(=O)/C=C/[C@H](C[C@@H]1CCNC1=O)NC(=O)[C@H](CC)CC(=O)c1ccc(-c2ccccc2C(F)(F)F)[nH]1 [Compound 37, 4S-{2R-Ethyl-4-oxo-4-[5-(2-trifluoromethyl-phenyl)-1H-pyrrol-2-yl]-butyrylamino}-5-(2-oxo-pyrrolidin-3S-yl)-pent-2(trans)-enoic acid ethyl ester] | > 10000
15 | 1030 |  | CCOC(=O)/C=C/[C@H](C[C@@H]1CCNC1=O)NC(=O)CCC(=O)c1ccccc1 [Compound 44, 4S-(4-oxo-4-phenyl-butyrylamino)-5-(2-oxo-pyrrolidin-3S-yl)-pent-2-enoic acid ethyl ester] | 
16 | 8300 |  | O=C1OCC/C1=C\[C@H](C[C@@H]1CCNC1=O)NC(=O)[C@H](CC(=O)c1ccc(-c2cccc3ccccc23)[nH]1)Cc1ccc(F)cc1 [Compound 32, 2-(R,S)-(4-Fluorobenzyl)-4-(5-naphthalen-1-yl-1H-pyrrol-2-yl)-4-oxo-N-[2-(2-oxo-dihydro-furan-3-ylidine)-1S-(2-oxo-pyrrolidin-3S-ylmethyl)-ethyl]-butyramide] | 
17 | 900 |  | O=C1OCC/C1=C\[C@H](C[C@@H]1CCNC1=O)NC(=O)C(CC(=O)c1ccc(-c2ccccc2)[nH]1)Cc1ccc(F)cc1 (stereo partly drawn) [Compound 31, 2-(R,S)-(4-Fluorobenzyl)-4-oxo-N-[2-(2-oxo-dihydro-furan-3-ylidine)-1S-(2-oxo-pyrrolidin-3S-ylmethyl)-ethyl]-4-(5-phenyl-1H-pyrrol-2-yl)-butyramide] | 
18 | 629 |  | CCOC(=O)/C=C/[C@H](C[C@@H]1CCNC1=O)NC(=O)CCC(=O)c1cccc2ccccc12 [Compound 45, 4-S-(4-Naphthalen-1-yl-4-oxo-butyrylamino)-5-(2-oxo-pyrrolidin-3S-yl)-pent-2-enoic acid ethyl ester] | 
19 | 520 |  | O=C1OCC/C1=C\[C@H](C[C@@H]1CCNC1=O)NC(=O)C(CC(=O)c1ccc[nH]1)Cc1ccc(F)cc1 (stereo partly drawn) [Compound 34, 2-(R,S)-(4-Fluorobenzyl)-4-oxo-N-[2-(2-oxo-dihydro-furan-3-ylidine)-1S-(2-oxo-pyrrolidin-3S-ylmethyl)-ethyl]-4-(1H-pyrrol-2-yl)-butyramide] | 
